Laboratory results from US8563540B2, “Pyrido[3,2-d]pyrimidine PI3K delta inhibitor compounds and methods of use” (Genetech, Inc., priority 2010, dated 2013).

Tests used:
p110 alpha = target: T1, p110 alpha (Homo sapiens, UniProt P42336); assay: PI3K Isoform Inhibition Assay, p110 alpha (delta/alpha selectivity); details: ratio of biochemical IC50 values
T1 construct: purchased Upstate Group, Millipore; Dundee, UK
Method: (§1) PI3K enzymatic activity was assayed by measuring the amount of product phosphatidylinositol […] (PIP3) formed from substrate 4,5 phosphatidylinositol 4,5-phosphate (PIP2) using a fluorescence polarization displacement assay. The decrease in fluorescence polarization of a fluorescent PIP3 probe is measured as it is displaced from a PIP3-binding protein GRP-1 detector by PI3K-catalyzed product. […] The kinase reactions were initiated by the addition of 40 ng/mL p110α/p85α, 300 ng/mL p110β/p85α, 40 ng/mL p110γ, or 40 ng/mL […] (Upstate Group, Millipore; Dundee, UK), and 10 μM PIP2 (Echelon Biosciences) to the wells. […] After 60 minutes of incubation at room temperature to allow equilibration of labeled and unlabeled PIP3 binding, the parallel and perpendicular components of the fluorescence emissions from each sample were measured at an excitation wavelength of 530 nm and an emission wavelength of 590 nm using an Envision fluorescent plate reader with a rhodamine filter (PerkinElmer Life and Analytical Sciences; Wellesley, Mass.). The assay is capable of detecting 0.1-2.0 μM PIP3 product. The IC50 values were obtained by fitting the dose-dependent inhibition data to a 4-parameter equation using Assay Explorer software (MDL, San Ramon, Calif.).
(§2) The Formula I compound was serially diluted in 100% DMSO. The kinase reaction was incubated for 1 h at room temperature, and the reaction was terminated by the addition of PBS. IC50 values were subsequently determined using sigmoidal dose-response curve fit (variable slope).
The same protocol may be used to establish IC50 values for p110α (alpha) PI3K binding. […]

p110 delta = target: T2, p110 delta (Homo sapiens, UniProt O00329); assay: PI3K Isoform Inhibition Assay, p110 delta; type: biochemical; details: PI3K isoform inhibition assay of Example 901
T2 construct: purchased Upstate Group, Millipore; Dundee, UK
Method: as §1, §2
The four Class I PI 3-kinases are cloned into baculovirus vectors as follows: […]

T2 sequence (O00329 whole entry, canonical isoform): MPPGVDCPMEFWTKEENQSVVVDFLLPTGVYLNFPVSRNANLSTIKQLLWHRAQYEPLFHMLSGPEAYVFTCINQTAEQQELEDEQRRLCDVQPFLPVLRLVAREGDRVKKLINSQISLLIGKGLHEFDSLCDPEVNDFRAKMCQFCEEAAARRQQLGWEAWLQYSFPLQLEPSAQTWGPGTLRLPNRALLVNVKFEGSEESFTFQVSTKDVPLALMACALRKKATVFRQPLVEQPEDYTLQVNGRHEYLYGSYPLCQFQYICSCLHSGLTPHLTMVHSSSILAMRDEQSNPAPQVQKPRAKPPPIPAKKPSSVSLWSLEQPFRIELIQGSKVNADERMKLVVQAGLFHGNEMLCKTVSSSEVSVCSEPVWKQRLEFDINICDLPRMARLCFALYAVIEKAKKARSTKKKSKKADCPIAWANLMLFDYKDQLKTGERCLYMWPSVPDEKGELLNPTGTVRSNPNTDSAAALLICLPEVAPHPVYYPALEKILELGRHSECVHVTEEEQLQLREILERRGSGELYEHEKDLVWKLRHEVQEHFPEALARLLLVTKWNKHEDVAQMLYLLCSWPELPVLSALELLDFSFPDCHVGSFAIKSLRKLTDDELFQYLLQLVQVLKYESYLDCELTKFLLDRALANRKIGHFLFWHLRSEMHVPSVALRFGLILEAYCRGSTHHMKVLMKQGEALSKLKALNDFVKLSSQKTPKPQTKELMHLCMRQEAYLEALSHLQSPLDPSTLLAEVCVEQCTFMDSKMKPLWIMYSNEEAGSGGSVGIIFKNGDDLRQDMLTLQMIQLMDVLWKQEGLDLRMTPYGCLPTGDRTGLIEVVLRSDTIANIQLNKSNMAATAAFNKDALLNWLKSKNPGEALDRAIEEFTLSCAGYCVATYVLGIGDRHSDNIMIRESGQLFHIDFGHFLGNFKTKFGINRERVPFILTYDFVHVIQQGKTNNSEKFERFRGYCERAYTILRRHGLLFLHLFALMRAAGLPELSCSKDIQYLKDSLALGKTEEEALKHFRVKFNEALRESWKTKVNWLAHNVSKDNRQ
T2 sequence (P27986 whole entry partner, canonical isoform): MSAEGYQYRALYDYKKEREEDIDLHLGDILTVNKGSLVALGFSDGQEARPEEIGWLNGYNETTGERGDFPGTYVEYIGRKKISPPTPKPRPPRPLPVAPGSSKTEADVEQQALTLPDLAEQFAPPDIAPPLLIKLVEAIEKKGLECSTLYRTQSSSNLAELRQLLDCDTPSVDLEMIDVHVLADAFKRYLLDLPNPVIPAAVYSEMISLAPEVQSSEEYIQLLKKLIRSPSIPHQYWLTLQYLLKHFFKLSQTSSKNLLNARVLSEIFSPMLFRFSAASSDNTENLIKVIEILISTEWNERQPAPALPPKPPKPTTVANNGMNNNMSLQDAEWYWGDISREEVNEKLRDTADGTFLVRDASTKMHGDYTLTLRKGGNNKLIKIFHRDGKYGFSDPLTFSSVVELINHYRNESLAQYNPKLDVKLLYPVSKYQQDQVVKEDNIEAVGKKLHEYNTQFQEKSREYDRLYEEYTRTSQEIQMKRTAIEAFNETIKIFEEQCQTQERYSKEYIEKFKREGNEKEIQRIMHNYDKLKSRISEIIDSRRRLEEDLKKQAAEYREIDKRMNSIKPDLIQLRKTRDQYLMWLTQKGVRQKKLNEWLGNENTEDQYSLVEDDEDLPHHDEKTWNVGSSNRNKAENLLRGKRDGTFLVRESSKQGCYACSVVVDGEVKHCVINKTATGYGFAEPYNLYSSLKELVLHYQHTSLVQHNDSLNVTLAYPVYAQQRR
T1 sequence (P42336 whole entry, canonical isoform): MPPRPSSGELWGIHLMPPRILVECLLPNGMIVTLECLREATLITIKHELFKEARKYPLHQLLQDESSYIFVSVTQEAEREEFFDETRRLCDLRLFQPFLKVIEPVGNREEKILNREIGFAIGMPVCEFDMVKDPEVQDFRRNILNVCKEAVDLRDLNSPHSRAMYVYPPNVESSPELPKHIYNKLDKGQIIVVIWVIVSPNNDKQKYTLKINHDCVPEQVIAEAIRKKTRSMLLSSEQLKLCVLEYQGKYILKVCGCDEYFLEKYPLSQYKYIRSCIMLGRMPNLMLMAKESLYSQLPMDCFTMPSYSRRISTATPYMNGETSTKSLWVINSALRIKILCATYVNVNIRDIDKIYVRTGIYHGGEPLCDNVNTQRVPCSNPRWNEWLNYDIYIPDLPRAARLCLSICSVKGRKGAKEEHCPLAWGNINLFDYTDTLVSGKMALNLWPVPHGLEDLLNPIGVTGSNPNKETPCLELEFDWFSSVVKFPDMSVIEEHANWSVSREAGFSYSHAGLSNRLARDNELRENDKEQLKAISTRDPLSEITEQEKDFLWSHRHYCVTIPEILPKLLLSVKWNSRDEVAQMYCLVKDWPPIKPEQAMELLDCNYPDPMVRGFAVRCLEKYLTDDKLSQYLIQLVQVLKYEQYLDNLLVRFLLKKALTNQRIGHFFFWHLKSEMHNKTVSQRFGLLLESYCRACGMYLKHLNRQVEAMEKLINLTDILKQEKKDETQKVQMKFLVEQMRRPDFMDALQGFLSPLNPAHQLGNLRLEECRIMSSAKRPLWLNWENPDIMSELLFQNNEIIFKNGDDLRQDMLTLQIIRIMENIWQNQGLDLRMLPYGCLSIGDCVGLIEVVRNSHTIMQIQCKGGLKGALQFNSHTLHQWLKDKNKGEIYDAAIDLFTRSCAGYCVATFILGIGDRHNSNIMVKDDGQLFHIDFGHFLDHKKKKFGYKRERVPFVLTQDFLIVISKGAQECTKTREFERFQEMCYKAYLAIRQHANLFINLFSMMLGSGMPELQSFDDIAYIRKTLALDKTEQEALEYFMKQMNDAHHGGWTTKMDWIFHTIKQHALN
T1 sequence (P27986 whole entry partner, canonical isoform): as the sequence (P27986 whole entry partner, canonical isoform) above

Row | SMILES | IC50 p110 alpha/IC50 p110 delta (p110 alpha) | IC50 (p110 delta) [nM]
1 | Cc1nc(N)ccc1-c1nc(N2CCOCC2)c2nc(CN3CCC(C(C)(C)O)CC3)ccc2n1 [Compound 116, 2-(1-((2-(6-amino-2-methylpyridin-3-yl)-4-morpholinopyrido[3,2-d]pyrimidin-6-yl)methyl)piperidin-4-yl)propan-2-ol] | 43 | 9.33
2 | CC(C)(O)CNCc1ccc2nc(-c3c(F)ccc4[nH]ccc34)nc(N3CCOCC3)c2n1 [Compound 143, 1-((2-(5-fluoro-1H-indol-4-yl)-4-morpholinopyrido[3,2-d]pyrimidin-6-yl)methylamino)-2-methylpropan-2-ol] | 58 | 35.9
3 | CC1(COc2ccc3nc(-c4cnc(N)nc4)nc(N4CCOCC4)c3n2)COC1 [Compound 188, 5-(6-((3-methyloxetan-3-yl)methoxy)-4-morpholinopyrido[3,2-d]pyrimidin-2-yl)pyrimidin-2-amine] | 0.18 | 8.69
4 | CC(C)n1ncnc1-c1ccc2nc(-c3c(F)ccc4[nH]ccc34)nc(N3CCOCC3)c2n1 [Compound 141, 4-(2-(5-fluoro-1H-indol-4-yl)-6-(1-isopropyl-1H-1,2,4-triazol-5-yl)pyrido[3,2-d]pyrimidin-4-yl)morpholine] | 9.4 | 63.6
5 | CO[C@H](C)c1nc2ccccc2n1-c1nc(N2CCOCC2)c2nc(CN3CCC(C(C)(C)O)CC3)ccc2n1 [Compound 115, (R)-2-(1-((2-(2-(1-methoxyethyl)-1H-benzo[d]imidazol-1-yl)-4-morpholinopyrido[3,2-d]pyrimidin-6-yl)methyl)piperidin-4-yl)propan-2-ol] | 58 | 7.11
6 | OCc1ccc2nc(-c3c(F)ccc4[nH]ccc34)nc(N3CCOCC3)c2n1 [Compound 108, (2-(5-fluoro-1H-indol-4-yl)-4-morpholinopyrido[3,2-d]pyrimidin-6-yl)methanol] | 13.5 | 26.5
7 | Fc1ccc2[nH]ccc2c1-c1nc(N2CCOCC2)c2nc(CN3CC(C4CCOCC4)C3)ccc2n1 [Compound 111, 4-(2-(5-fluoro-1H-indol-4-yl)-6-((3-(tetrahydro-2H-pyran-4-yl)azetidin-1-yl)methyl)pyrido[3,2-d]pyrimidin-4-yl)morpholine] | 281 | 5.32
8 | COC1CN(c2cnc3c(N4CCOCC4)nc(-c4cnc(N)nc4)nc3c2)C1 [Compound 200, 5-(7-(3-methoxyazetidin-1-yl)-4-morpholinopyrido[3,2-d]pyrimidin-2-yl)pyrimidin-2-amine] | 0.97 | 716
9 | Cc1oc2ccccc2c1-c1nc(N2CCOCC2)c2nc(CN3CCC(C(C)(C)O)CC3)ccc2n1 [Compound 103, 2-(1-((2-(2-methylbenzofuran-3-yl)-4-morpholinopyrido[3,2-d]pyrimidin-6-yl)methyl)piperidin-4-yl)propan-2-ol] | 200 | 10.5
10 | CCn1c(=O)c2ccccc2n1-c1nc(N2CCOCC2)c2nc(CN3CCC(C(C)(C)O)CC3)ccc2n1 [Compound 104, 2-ethyl-1-(6-((4-(2-hydroxypropan-2-yl)piperidin-1-yl)methyl)-4-morpholinopyrido[3,2-d]pyrimidin-2-yl)-1H-indazol-3(2H)-one] | 83 | 11.8
11 | CC(C)(O)C1CCN(Cc2ccc3nc(-c4cccc5[nH]ncc45)nc(N4CCOCC4)c3n2)CC1 [Compound 110, 2-(1-((2-(1H-indazol-4-yl)-4-morpholinopyrido[3,2-d]pyrimidin-6-yl)methyl)piperidin-4-yl)propan-2-ol] | 21 | 6.32
12 | Cc1cc(Nc2nc(N3CCOCC3)c3nc(CN4CCC(C(C)(C)O)CC4)ccc3n2)n[nH]1 [Compound 106, 2-(1-((2-(5-methyl-1H-pyrazol-3-ylamino)-4-morpholinopyrido[3,2-d]pyrimidin-6-yl)methyl)piperidin-4-yl)propan-2-ol] | 31 | 66.9

Now those with a lower IC50 (p110 delta), led by results:

Row | IC50 p110 alpha/IC50 p110 delta (p110 alpha) | IC50 (p110 delta) [nM] | SMILES
13 | 37 | 5.09 | COC(=O)C(C)(C)N1CC(Cc2ccc3nc(-n4c(C(C)C)nc5ccccc54)nc(N4CCOCC4)c3n2)C1 [Compound 117, methyl 2-(3-((2-(2-isopropyl-1H-benzo[d]imidazol-1-yl)-4-morpholinopyrido[3,2-d]pyrimidin-6-yl)methyl)azetidin-1-yl)-2-methylpropanoate]
14 | 0.34 | 4.91 | CC(C)Oc1cnc2c(N3CCOCC3)nc(-c3cnc(N)nc3)nc2c1 [Compound 201, 5-(7-isopropoxy-4-morpholinopyrido[3,2-d]pyrimidin-2-yl)pyrimidin-2-amine]
15 | 55 | 4.48 | CC(C)(C(N)=O)N1CCN(Cc2ccc3nc(-c4c[nH]c5ccccc45)nc(N4CCOCC4)c3n2)CC1 [Compound 123, 2-(4-((2-(1H-indol-3-yl)-4-morpholinopyrido[3,2-d]pyrimidin-6-yl)methyl)piperazin-1-yl)-2-methylpropanamide]
16 | 0.27 | 3.88 | Nc1ncc(-c2nc(N3CCOCC3)c3ncc(C4CC4)cc3n2)cn1 [Compound 198, 5-(7-cyclopropyl-4-morpholinopyrido[3,2-d]pyrimidin-2-yl)pyrimidin-2-amine]
17 | 10.9 | 3.56 | CCc1nc2ccccc2n1-c1nc(N2CCOCC2)c2nc(CN3CC(N4CCNC(=O)C4)C3)ccc2n1 [Compound 134, 4-(1-((2-(2-ethyl-1H-benzo[d]imidazol-1-yl)-4-morpholinopyrido[3,2-d]pyrimidin-6-yl)methyl)azetidin-3-yl)piperazin-2-one]
18 | 352 | 3.12 | Fc1ccc2[nH]ccc2c1-c1nc(N2CCOCC2)c2nc(CN3CCC(C4COC4)CC3)ccc2n1 [Compound 130, 4-(2-(5-fluoro-1H-indol-4-yl)-6-((4-(oxetan-3-yl)piperidin-1-yl)methyl)pyrido[3,2-d]pyrimidin-4-yl)morpholine]
19 | 5.4 | 2.57 | CC(C)(O)C1CCN(Cc2ccc3nc(-c4cnc(N)nc4)nc(N4CCOCC4)c3n2)CC1 [Compound 107, 2-(1-((2-(2-aminopyrimidin-5-yl)-4-morpholinopyrido[3,2-d]pyrimidin-6-yl)methyl)piperidin-4-yl)propan-2-ol]
20 | 141 | 1.75 | O=C1CN(C2CN(Cc3ccc4nc(-c5c(F)ccc6[nH]ccc56)nc(N5CCOCC5)c4n3)C2)CCN1 [Compound 127, 4-(1-((2-(5-fluoro-1H-indol-4-yl)-4-morpholinopyrido[3,2-d]pyrimidin-6-yl)methyl)azetidin-3-yl)piperazin-2-one]
21 | 203 | 1.29 | CC(C)(C(N)=O)N1CCN(Cc2ccc3nc(-c4c(F)ccc5[nH]ccc45)nc(N4CCOCC4)c3n2)CC1 [Compound 121, 2-(4-((2-(5-fluoro-1H-indol-4-yl)-4-morpholinopyrido[3,2-d]pyrimidin-6-yl)methyl)piperazin-1-yl)-2-methylpropanamide]
22 | 257 | 1.14 | Fc1ccc2[nH]ccc2c1-c1nc(N2CCOCC2)c2nc(CN3CC(N4CCOCC4)C3)ccc2n1 [Compound 126, 4-(1-((2-(5-fluoro-1H-indol-4-yl)-4-morpholinopyrido[3,2-d]pyrimidin-6-yl)methyl)azetidin-3-yl)morpholine]
